The assay has as its system TNF-α. As to the kind of experiment: Determination of TNF-α inhibition rate (LPS-induced inflammation in mice, serum TNF-α). The class given is in vivo. Conditions: Mus musculus, 1 h, oral 100 mg/kg in 0.5% methyl cellulose, LPS 0.4 mg/kg i.p. one hour later, serum TNF-α one hour after LPS. As to the method: A test substance was suspended in a 0.5%. (w/v) methyl cellulose and orally administered to mice at a dose of 100 mg/kg. One hour later, a lipopolysaccharide (LPS, Sigma-Aldrich, L2630 (trade name)) (0.4 mg/kg) was intraperitoneally administered to induce inflammation. One hour after administration of LPS, blood was taken from the vena cava under anesthesia with isoflurane, placed in a tube containing a serum separating agent, allowed to stand still at room temperature for 20-30 minutes and centrifuged at 4° C. at 12,000 rpm for 5 minutes to obtain the serum. Thereafter, the amount of the TNF-α in the serum was measured by using Mouse TNF-α Elisa Kit (Invitrogen, KMC3011C (trade name)) or Mouse TNF-α Immunoassay Kit (PerkinElmer, AL505 (trade name)) in accordance with the protocol of the kit. The serum was diluted 10 times with the dilution solution contained in the kit and put in use.
TNF-α inhibition rate (%) of the test substance was calculated in accordance with the following expression. TNF-α inhibition rate (%)=[(TNF-α amount of control group)−(TNF-α amount of test substance administration group)]×100/(TNF-α amount of control group)

Compound `COC1=CC(=O)C[C@@H](C)[C@]12Oc1c(Cl)c(OCCO)cc(OC)c1C2=O` [Example 1, (2S,5′R)-7-Chloro-6-(2-hydroxyethoxy)-3′,4-dimethoxy-5′-methyl-spiro[benzofuran-2,4′-cyclohex-2-ene]-1′,3-dione] yielded an inhibition in vivo at 100 mg/kg of 62%.

`COC1=CC(=O)C[C@@H](C)[C@]12Oc1c(Cl)c(-c3nnc(C)o3)cc(OC)c1C2=O` [Example 5, (2S,5′R)-7-Chloro-3′,4-dimethoxy-5′-methyl-6-(5-methyl-1,3,4-oxadiazol-2-yl)spiro[benzofuran-2,4′-cyclohex-2-ene]-1′,3-dione] gave an inhibition in vivo at 100 mg/kg of 70%.

The compound `COC1=CC(=O)C[C@@H](C)[C@]12Oc1c(Cl)c(-c3nnc([C@H](C)O)o3)cc(OC)c1C2=O` [Example 9, (2S,5′R)-7-Chloro-6-[5-[(1S)-1-hydroxyethyl]-1,3,4-oxadiazol-2-yl]-3′,4-dimethoxy-5′-methyl-spiro[benzofuran-2,4′-cyclohex-2-ene]-1′,3-dione] had an inhibition in vivo at 100 mg/kg of 65%.

`CCn1ccc(-c2cc(OC)c3c(c2Cl)O[C@]2(C3=O)C(OC)=CC(=O)C[C@H]2C)n1` [Example 4, (2S,5′R)-7-Chloro-6-(1-ethylpyrazol-3-yl)-3′,4-dimethoxy-5′-methyl-spiro[benzofuran-2,4′-cyclohex-2-ene]-1′,3-dione] displayed an inhibition in vivo at 100 mg/kg of 73%.

As for `COC1=CC(=O)C[C@@H](C)[C@]12Oc1c(Cl)c(OC)cc(OC)c1C2=O` [Griseofulvin], the inhibition in vivo at 100 mg/kg stood at 19%.

Consider `COC1=CC(=O)C[C@@H](C)[C@]12Oc1c(Cl)c(-c3nnc(C(C)(C)O)o3)cc(OC)c1C2=O` [Example 8, (2S,5′R)-7-Chloro-6-[5-(1-hydroxy-1-methyl-ethyl)-1,3,4-oxadiazol-2-yl]-3′,4-dimethoxy-5′-methyl-spiro[benzofuran-2,4′-cyclohex-2-ene]-1′,3-dione], for which 100 mg/kg produced 38% inhibition in vivo.

`COC1=CC(=O)C[C@@H](C)[C@]12Oc1c(Cl)c(-c3ccn(C)n3)cc(OC)c1C2=O` [Example 3, (2S,5′R)-7-Chloro-3′,4-dimethoxy-5′-methyl-6-(1-methylpyrazol-3-yl)spiro[benzofuran-2,4′-cyclohex-2-ene]-1′,3-dione]: the inhibition in vivo at 100 mg/kg was 65%.

The compound `COC1=CC(=O)C[C@@H](C)[C@]12Oc1c(Cl)c(-c3nc(C)no3)cc(OC)c1C2=O` [Example 6, (2S,5′R)-7-Chloro-3′,4-dimethoxy-5′-methyl-6-(3-methyl-1,2,4-oxadiazol-5-yl)spiro[benzofuran-2,4′-cyclohex-2-ene]-1′,3-dione] yielded an inhibition in vivo at 100 mg/kg of 55%.

The compound `COC1=CC(=O)C[C@@H](C)[C@]12Oc1c(Cl)c(-c3nnc([C@@H](C)O)o3)cc(OC)c1C2=O` [Example 10, (2S,5′R)-7-Chloro-6-[5-[(1R)-1-hydroxyethyl]-1,3,4-oxadiazol-2-yl]-3′,4-dimethoxy-5′-methyl-spiro[benzofuran-2,4′-cyclohex-2-ene]-1′,3-dione] displayed an inhibition in vivo at 100 mg/kg of 58%.

Take `CCOc1cc(-c2nnc([C@H](C)O)o2)c(Cl)c2c1C(=O)[C@@]1(O2)C(OC)=CC(=O)C[C@H]1C` [Example 12, (2S,5′R)-7-Chloro-4-ethoxy-6-[5-[(1S)-1-hydroxyethyl]-1,3,4-oxadiazol-2-yl]-3′-methoxy-5′-methyl-spiro[benzofuran-2,4′-cyclohex-2-ene]-1′,3-dione]: the inhibition in vivo at 100 mg/kg was 61%.

Regarding `COCCOc1cc(OC)c2c(c1Cl)O[C@]1(C2=O)C(OC)=CC(=O)C[C@H]1C` [Example 2, (2S,5′R)-7-Chloro-3′,4-dimethoxy-6-(2-methoxyethoxy)-5′-methyl-spiro[benzofuran-2,4′-cyclohex-2-ene]-1′,3-dione], the inhibition in vivo at 100 mg/kg is 71%.

Regarding `CCOc1cc(-c2nnc(C(C)(C)O)o2)c(Cl)c2c1C(=O)[C@@]1(O2)C(OC)=CC(=O)C[C@H]1C` [Example 11, (2S,5′R)-7-Chloro-4-ethoxy-6-[5-(1-hydroxy-1-methyl-ethyl)-1,3,4-oxadiazol-2-yl]-3′-methoxy-5′-methyl-spiro[benzofuran-2,4′-cyclohex-2-ene]-1′,3-dione], the inhibition in vivo at 100 mg/kg was 61%.

With `COC1=CC(=O)C[C@@H](C)[C@]12Oc1c(Cl)c(-c3nc(C(C)O)no3)cc(OC)c1C2=O` (stereo partly drawn) [Example 13, (2S,5′R)-7-Chloro-6-[3-(l-hydroxyethyl)-1,2,4-oxadiazol-5-yl]-3′,4-dimethoxy-5′-methyl-spiro[benzofuran-2,4′-cyclohex-2-ene]-1′,3-dione], the inhibition in vivo at 100 mg/kg was found to be 82%.

In turn, `COC1=CC(=O)C[C@@H](C)[C@]12Oc1c(Cl)c(-c3nnc(C)o3)cc(OCCO)c1C2=O` [Example 14, (2S,5′R)-7-Chloro-4-(2-hydroxyethoxy)-3′-methoxy-5′-methyl-6-(5-methyl-1,3,4-oxadiazol-2-yl)spiro[benzofuran-2,4′-cyclohex-2-ene]-1′,3-dione] displayed an inhibition in vivo at 100 mg/kg of 24%.

In turn, `COC1=CC(=O)C[C@@H](C)[C@]12Oc1c(Cl)c(-c3nc(C)no3)cc(OCCO)c1C2=O` [Example 15, (2S,5′R)-7-Chloro-4-(2-hydroxyethoxy)-3′-methoxy-5′-methyl-6-(3-methyl-1,2,4-oxadiazol-5-yl)spiro[benzofuran-2,4′-cyclohex-2-ene]-1′,3-dione] showed an inhibition in vivo at 100 mg/kg of 55%.

Compound `COC1=CC(=O)C[C@@H](C)[C@]12Oc1c(Cl)c(-c3noc(C)n3)cc(OCCO)c1C2=O` [Example 16, (2S,5′R)-7-Chloro-4-(2-hydroxyethoxy)-3′-methoxy-5′-methyl-6-(5-methyl-1,2,4-oxadiazol-3-yl)spiro[benzofuran-2,4′-cyclohex-2-ene]-1′,3-dione] had an inhibition in vivo at 100 mg/kg of 62%.

As for `COC1=CC(=O)C[C@@H](C)[C@]12Oc1c(Cl)c(-c3noc(C)n3)cc(OC)c1C2=O` [Example 7, (2S,5′R)-7-Chloro-3′,4-dimethoxy-5′-methyl-6-(5-methyl-1,2,4-oxadiazol-3-yl)spiro[benzofuran-2,4′-cyclohex-2-ene]-1′,3-dione], 100 mg/kg produced 65% inhibition in vivo.

As usually defined, the inhibition in vivo is how much of the control response was suppressed. Read a low inhibition in vivo as a weak effect.

Values taken from patent US12091395B2, “Griseofulvin compound” (Daiichi Sankyo Company, Limited, priority 2016, dated 2024).
